Measured values reported in patent US4426382A, “4-Amino-6,7-dimethoxy-2-piperazinylquinazoline derivatives, their preparation and use” (Sankyo Company Limited, priority 1980, dated 1984).
Structures can show the parent of a compound that is named as a salt.

What was measured:
[1] = background; cited from earlier work
[2] = tested on: spontaneously hypertensive rats; assay: antihypertensive activity: blood pressure after oral administration to conscious spontaneously hypertensive rats; assay type: in vivo; details: male spontaneously hypertensive rats
Method: The animals used in this test were 15 week old male spontaneously hypertensive rats. 3-5 rats were used to test each concentration of each compound. Each animal was treated as follows. […] A polyethylene cannula was then inserted into the abdominal aorta by the method of Weeks and Jones [J. R. Weeks and J. A. Jones, Proc. Soc. […] The other end of the cannula, leading out of the body, was fixed to the neck. One week after the operation, when the animal had recovered from post-operative invasion, this end of the cannula was connected to an apparatus to measure the blood pressure and heart beat directly without the need for any further anesthesia or restraint. The haemomanometer used was an improved type of that originated by Laffan et al. [P. J. Laffan, A. Peterson, S. W. Hitch and C.
The compound under test was suspended at the desired concentration in a 0.3% w/v aqueous solution of carboxymethylcellulose and administered orally in a volume of 2 ml/kg body weight. […] After administration of the sample, the blood pressure and heart beat of each animal were measured for 24 hours at 15 minute intervals.
For purposes of comparison, the same experiment was carried out with various concentrations of the known hypotensive agent, prazosin, in the form of its hydrochloride.
Δmax =Maximum change in blood pressure (mm/Hg) after administration of the compound under test;
Tmax =Time (in hours) after administration of the compound under test required for the blood pressure to obtain a maximum change;
T0.5 max =Time (in hours) after administration of the compound under test for the blood pressure to return to one-half of its maximum value.

SMILES | antihypertensive activity (in words) [1] | disappearance of hypotensive effect (in words) [1] | time to maximum hypotensive effect (in words) [1] | Tmax, time after administration required for the blood pressure to obtain a maximum change ([2]; dose 3 mg/kg oral) | Δmax, maximum change in blood pressure after administration ([2]; dose 3 mg/kg oral) | T0.5 max, time after administration for the blood pressure to return to one-half of its maximum value ([2]; dose 3 mg/kg oral, 3 mg/kg) | T0.5 max, time after administration for the blood pressure to return to one-half of its maximum value ([2]; dose 30 mg/kg oral, 30 mg/kg) | Tmax, time after administration required for the blood pressure to obtain a maximum change ([2]; dose 30 mg/kg oral, 30 mg/kg) | Δmax, maximum change in blood pressure after administration ([2]; dose 30 mg/kg oral, 30 mg/kg) | T0.5 max, time after administration for the blood pressure to return to one-half of its maximum value ([2]; dose 3 mg/kg oral) | T0.5 max, time after administration for the blood pressure to return to one-half of its maximum value ([2]; dose 30 mg/kg oral) | Tmax, time after administration required for the blood pressure to obtain a maximum change ([2]; dose 30 mg/kg oral) | Δmax, maximum change in blood pressure after administration ([2]; dose 30 mg/kg oral)
COc1cc2nc(N3CCN(C(=O)c4ccco4)CC3)nc(N)c2cc1OC [prazosin] | very useful antihypertensive activity | the effect tends also to diappear quickly | maximum hypotensive effect tends to be achieved very quickly |  |  |  |  |  |  |  |  |  | 
CCC=CC(=O)N1CCN(c2nc(N)c3cc(OC)c(OC)cc3n2)CC1 [Compound No. 5, 4-Amino-6,7-dimethoxy-2-[4-(2-pentenoyl)-1-piperazinyl]quinazoline] |  |  |  | 30 min | -40 mmHg | 9 h | 11.5 h | 30 min | -50 mmHg |  |  |  | 
C=CCCC(=O)N1CCN(c2nc(N)c3cc(OC)c(OC)cc3n2)CC1 [Compound No. 6, 4-Amino-6,7-dimethoxy-2-[4-(4-pentenoyl)-1-piperazinyl]quinazoline] |  |  |  | 30 min | -40 mmHg |  |  |  |  | 8 h | 13 h | 30 min | -65 mmHg
COc1cc2nc(N3CCN(C(=O)C=C4CCCC4)CC3)nc(N)c2cc1OC [32 hydrochloride hydrate] |  |  |  | 60 to 120 min | -40 mmHg |  |  |  |  | 10 h | 7 h | 60 to 120 min | -80 mmHg
CC=C(C)C(=O)N1CCN(c2nc(N)c3cc(OC)c(OC)cc3n2)CC1 [Compound No. 3, 4-Amino-2-[4-(2,3-dimethylacryloyl)-1-piperazinyl]-6,7-dimethoxyquinazoline] |  |  |  |  |  |  |  |  |  |  | 2 h | 30 min | -30 mmHg
C=C(C)C(=O)N1CCN(c2nc(N)c3cc(OC)c(OC)cc3n2)CC1 [Compound No. 2, 4-Amino-6,7-dimethoxy-2-[4-(2-methylacryloyl)-1-piperazinyl]quinazoline] |  |  |  | 45 min | -25 mmHg |  |  |  |  | 3.5 h | 9 h | 30 min | -35 mmHg
